# Measurements: ChEMBL document CHEMBL4321854, “Discovery of a First-in-Class Mitogen-Activated Protein Kinase Kinase 1/2 Degrader” (J Med Chem, 2019)
# Activity calls are given as the source filed them. The calls are words filed in the database; no cut-off is given here.
# Legend:
# [1] = Ratio of Plasma concentration in Swiss albino mouse at 50 mg/kg, ip measured after 8 hrs to GI50 for antiproliferative activity against human UACC257 cells; type: organism-based; settings: in vivo
# [2] = target: T1, von Hippel-Lindau disease tumor suppressor/Dual specificity mitogen-activated protein kinase kinase 1 (Homo sapiens) (UniProt Q02750+P40337); test: Protac activity against VHL/MEK1 in human SK-MEL-28 cells harboring with BRAF V600E variant assessed as degradation of MEK1 by measuring MEK1 protein level at 0.3 uM pretreated with VHL ligand, VH 032 for 2 hrs followed by incubation with compound for 10 hrs by Western blot analysis; type: cell-based
# [3] = Toxicity in Swiss albino mouse assessed as effect on adverse events at 50 mg/kg, ip; type: organism-based; settings: in vivo
# [4] = target: T2, von Hippel-Lindau disease tumor suppressor/Dual specificity mitogen-activated protein kinase kinase 2 (Homo sapiens) (UniProt P36507+P40337); test: Protac activity against VHL/MEK2 in human HT-29 cells harboring with BRAF V600E variant assessed as degradation of MEK2 at 0.3 uM after 3 to 144 hrs by Western blot analysis; type: cell-based
# [5] = target: T1, von Hippel-Lindau disease tumor suppressor/Dual specificity mitogen-activated protein kinase kinase 1 (Homo sapiens); test: Protac activity against VHL/MEK1 in human HT-29 cells harboring with BRAF V600E variant assessed as degradation of MEK1 by measuring reduction in MEK1 protein level at 0.5 uM after 24 hrs by Western blot analysis relative to control; type: cell-based; design: scale not given: the % may be the effect or the level left
# [6] = target: T3, von Hippel-Lindau disease tumor suppressor/Dual specificity mitogen-activated protein kinase kinase 2/Dual specificity mitogen-activated protein kinase kinase 1 (Homo sapiens) (UniProt P36507+Q02750+P40337); test: (§1) Protac activity against VHL/MEK1/2 in human HT-29 cells harboring with BRAF V600E variant assessed as phosphorylation of ERK at T202/Y204 residues at 0.3 uM pretreated with proteasome inhibitor, MG-132 for 2 hrs followed by incubation with compound for 10 hrs by Western blot analysis; type: cell-based
# [7] = target: T1, von Hippel-Lindau disease tumor suppressor/Dual specificity mitogen-activated protein kinase kinase 1 (Homo sapiens); test: Protac activity against VHL/MEK1 in human HT-29 cells harboring with BRAF V600E variant assessed as degradation of MEK1 at 3 to 5 uM after 24 hrs by Western blot analysis; type: cell-based
# [8] = target: T2, von Hippel-Lindau disease tumor suppressor/Dual specificity mitogen-activated protein kinase kinase 2 (Homo sapiens); test: (§2) Protac activity against VHL/MEK2 in human COLO205 cells harboring BRAF V600E variant assessed as degradation of MEK2 after 24 hrs by Western blot analysis; type: cell-based
# [9] = target: von Hippel-Lindau disease tumor suppressor/Dual specificity mitogen-activated protein kinase kinase 2 (Homo sapiens, UniProt P36507+P40337, V600E); test: as §2; type: cell-based
# [10] = target: T3, von Hippel-Lindau disease tumor suppressor/Dual specificity mitogen-activated protein kinase kinase 2/Dual specificity mitogen-activated protein kinase kinase 1 (Homo sapiens); test: as §1, with “SK-MEL-28” for “HT-29”, “MEK” for “ERK”, “S218/222” for “T202/Y204”, “NEDD8-activating enzyme” for “proteasome”, “MLN4924” for “MG-132”; type: cell-based
# HT-29 = test: Inhibition of colony formation in human HT-29 cells at 10 to 100 nM supplemented with fresh medium containing compound every 3 days for 14 days by crystal violet staining based assay; type: functional, cell-based
# T1 sequence (P40337 whole entry, looked up): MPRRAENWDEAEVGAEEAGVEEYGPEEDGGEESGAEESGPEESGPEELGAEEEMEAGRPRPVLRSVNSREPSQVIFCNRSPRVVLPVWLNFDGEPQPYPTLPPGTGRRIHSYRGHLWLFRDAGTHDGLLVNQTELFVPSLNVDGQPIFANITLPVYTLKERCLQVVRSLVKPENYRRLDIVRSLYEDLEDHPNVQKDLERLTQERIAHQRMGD
# T1 sequence (Q02750 whole entry, looked up): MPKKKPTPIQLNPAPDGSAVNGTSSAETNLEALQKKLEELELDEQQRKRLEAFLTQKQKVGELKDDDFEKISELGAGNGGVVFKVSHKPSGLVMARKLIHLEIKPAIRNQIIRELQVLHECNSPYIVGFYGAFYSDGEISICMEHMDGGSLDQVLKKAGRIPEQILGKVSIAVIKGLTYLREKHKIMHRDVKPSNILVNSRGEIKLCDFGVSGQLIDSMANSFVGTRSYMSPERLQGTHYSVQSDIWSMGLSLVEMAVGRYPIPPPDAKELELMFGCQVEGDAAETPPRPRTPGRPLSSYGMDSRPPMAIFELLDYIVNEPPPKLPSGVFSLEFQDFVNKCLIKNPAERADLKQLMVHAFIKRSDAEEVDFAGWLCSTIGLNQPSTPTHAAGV
# T2 sequence (P36507 whole entry, looked up): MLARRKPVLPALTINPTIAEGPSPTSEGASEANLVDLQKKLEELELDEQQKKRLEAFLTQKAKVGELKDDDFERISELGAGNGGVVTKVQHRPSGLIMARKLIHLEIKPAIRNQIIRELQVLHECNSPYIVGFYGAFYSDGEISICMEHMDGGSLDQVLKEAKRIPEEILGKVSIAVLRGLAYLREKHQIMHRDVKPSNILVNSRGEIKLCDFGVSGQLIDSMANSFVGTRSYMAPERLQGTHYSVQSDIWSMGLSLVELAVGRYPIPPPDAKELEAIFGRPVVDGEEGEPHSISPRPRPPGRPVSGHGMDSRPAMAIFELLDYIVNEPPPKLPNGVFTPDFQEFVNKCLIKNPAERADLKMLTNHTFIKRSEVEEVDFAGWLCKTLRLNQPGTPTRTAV
# T2 sequence (P40337 whole entry, looked up): as the sequence (P40337 whole entry, looked up) above
# T3 sequence (P36507 whole entry, looked up): as the sequence (P36507 whole entry, looked up) above
# T3 sequence (P40337 whole entry, looked up): as the sequence (P40337 whole entry, looked up) above
# T3 sequence (Q02750 whole entry, looked up): as the sequence (Q02750 whole entry, looked up) above
# Chain of von Hippel-Lindau disease tumor suppressor/Dual specificity mitogen-activated protein kinase kinase 2 (P36507 whole entry, looked up, stated change not applied): as the sequence (P36507 whole entry, looked up) above
# Chain of von Hippel-Lindau disease tumor suppressor/Dual specificity mitogen-activated protein kinase kinase 2 (P40337 whole entry, looked up, stated change not applied): as the sequence (P40337 whole entry, looked up) above
smiles,measurement,setting,value
Cc1ncsc1-c1ccc([C@H](C)NC(=O)[C@@H]2C[C@@H](O)CN2C(=O)[C@@H](NC(=O)CCCCCCCCCCNCCCONC(=O)c2ccc(F)c(F)c2Nc2ccc(I)cc2F)C(C)(C)C)cc1,Ratio,[1],3 to 20
same,Activity,[2],inactive
same,Activity,[3],Non-Toxic
same,Activity,[4],Active
same,Activity,[5],> 80%
same,Activity,[6],inactive
same,Activity,[7],Active
same,Activity,[8],Dose-dependent effect
same,DC50,[9],11 nM
same,Activity,[10],inactive
same,inhibition,HT-29,Active
